System: MF patients
Assay: Phase 1/2 clinical study in MF patients treated with HCl salt of Compound (1) (TP-3654-102)
Assay type: in vivo, human
Design: reduction in IL6 / reduction in IL12p40 / reduction in MMP9 / reduction in EN-RAGE / median TSS reduction from baseline: concentration or dose not given beside the values
Experimental: Patients with MF (primary MF, post-PV MF, post-ET MF) and DIPSS intermediate-1, intermediate-2, or high risk were enrolled in a Phase 1/2 clinical study.
Dose escalation to 960 mg BID and 1440 mg BID is intended.
Patients had to meet all of the following inclusion criteria to enroll in the study: • 1. Adult (≥18 years of age) • 2. Confirmed pathological diagnosis of primary MF (PMF) or post-PV-MF/postET-MF as per WHO diagnostic criteria and intermediate or high-risk primary or secondary MF based on the Dynamic International Prognostic Scoring System (DIPSS). • 3. Previously treated with a JAK inhibitor and are intolerant, resistant, refractory or lost response to the JAK inhibitor, or are ineligible to be treated with ruxolitinib or fedratinib at the discretion of the investigator. • 4. Grade≥2 bone marrow fibrosis, as confirmed by bone marrow biopsy within 12 weeks prior to Screening. • 5. Fulfill the following laboratory parameters: • a. Platelet count≥25×10^9/L (without the assistance of growth factors or platelet transfusions) • b. Absolute neutrophil count (ANC)≥1×10^9/L without the assistance of granulocyte growth factors. • 6. Peripheral blood blast count<10%. • 7. Eastern Cooperative Oncology Group (ECOG) performance status≤2. • 8. Life expectancy≥3 months. • 9. […] Adequate hepatic function (ALT/AST≤3×ULN, total bilirubin≤1.5×ULN; or ALT/AST≤5×ULN, direct bilirubin≤2×ULN if due to MF); and coagulation ([PT and PTT]≤1.5×ULN). • 11. Agree to provide bone marrow biopsies during the study: at baseline or within 12 weeks prior to enrollment, and every 6 months during treatment. • 12. Capable of providing signed informed consent as described in which includes compliance with the requirements and restrictions listed in the informed consent form (ICF) and in this protocol • 13. […] Show at least 2 symptoms measurable (score≥1) using the Myelofibrosis Symptom Assessment Form (MFSAF), v4.0. • 16. Able to take orally administered medication
Patients meeting any one of the exclusion criteria were prohibited from participating in the study: • 1. Received previous systemic antineoplastic therapy (including unconjugated therapeutic antibodies, toxin immunoconjugates, ESA, and alpha-interferon) or any experimental therapy within 14 days or 5 half-lives, whichever is longer, before the first dose of study treatment. • 2. Major surgery within 2 weeks before the first dose of either study drug. • 3. Splenic irradiation within 6 months prior to Screening or prior splenectomy. • 4. AML, MDS, or peripheral blasts≥10%. • 5. Prior autologous or allogeneic stem cell transplant at any time. • 6. Eligible for allogeneic bone marrow or stem cell transplantation within 3 months following enrollment (not a candidate or not willing to undergo transplantation or a suitable donor not available are considered as transplant ineligible). • 7. Currently receiving treatment with a prohibited medication that cannot be discontinued at least one week prior to the start of treatment. • 8. Experiencing electrolyte abnormalities of NCI CTCAE Grade≥2 (e.g., serum potassium, magnesium and calcium) unless they can be corrected during screening and are deemed not clinically significant by the Investigator. • 9. History of congestive heart failure, myocardial infarction within the past 6 months prior to Cycle 1/Day 1; left ventricular ejection fraction<45% by echocardiogram or MUGA, unstable arrhythmia, or evidence of ischemia on electrocardiogram (ECG) within 14 days prior to Cycle 1/Day 1. • 10. Corrected QT interval (using Fridericia's correction formula) of >450 msec in men and >470 msec in women. • 11. Central nervous system (CNS) cancer or metastases, meningeal carcinomatosis, malignant seizures, or a disease that either causes or threatens neurologic compromise (e.g., unstable vertebral metastases). • 12. Other invasive malignancies within the last 3 years, except non-melanoma skin cancer, and localized cured prostate and cervical cancer • 13. […]

[1] = R/R MF, ≥25 × 10^9/L PLT, monotherapy
[2] = TP-3654-102, R/R MF, monotherapy, N = 23
[3] = first interim analysis, FIG. 5G
[4] = first interim analysis, monotherapy, 480 mg QD to 720 mg BID
[5] = first interim analysis, over treatment duration
[6] = first interim analysis, treatment duration ≥12 weeks
[7] = one patient with bone marrow fibrosis reduction
[8] = second interim analysis, MFSAF v4.0
[9] = second interim analysis, n = 13

CC(C)(O)[C@H]1CC[C@H](Nc2ccc3ncc(-c4cccc(C(F)(F)F)c4)n3n2)CC1 [Compound (1)]
Hem AE (>10%), thrombocytopenia (R/R MF, Ph 1): No ≥G3
SVR35 at Week 24 [1]: 23%
TSS50 at Week 24 [1]: 54%
TEAE Anemia, All Gr [2]: 13%
TEAE Anemia, ≥3 Gr [2]: 4.3%
TEAE Neutropenia, All Gr [2]: 0%
TEAE Neutropenia, ≥3 Gr [2]: 0%
TEAE Thrombocytopenia, All Gr [2]: 22%
TEAE Thrombocytopenia, ≥3 Gr [2]: 13%
patients with myelosuppressive adverse events (anemia, neutropenia, thrombocytopenia) (first interim analysis): 1 patient
time at which cytokine modulation was observed (as early as) (first interim analysis): ≤ 24 h
patients with reduced spleen size and reduced symptoms [3]: 4 patients
patients with spleen volume increase and reduced symptoms [3]: 1 patient
patients with spleen volume reduction and increased symptoms [3]: 1 patient
reductions in cytokines vs total symptoms reduction (first interim analysis, cytokine changes available for 7 patients): More reductions in cytokines were observed in patients who had more total symptoms reduction
hemoglobin [4]: increased in some patients
neutrophil counts [4]: stable
platelet counts [4]: stable or increased
spleen volume, median best change [5]: −13%
total symptom score, median best change [5]: −70%
patients with spleen volume reduction [6]: Eight out of 10
patients with total symptom reduction [6]: Nine out of 10
change for platelet count, hemoglobin, and neutrophil reduction (for most patients, monotherapy): less than 1 grade
reduction in EN-RAGE [7]: 68%
reduction in IL12p40 [7]: 83%
reduction in MMP9 [7]: 56%
reduction in IL6 (one patient with bone marrow fibrosis reduction, printed 1L6): 68%
bone marrow fibrosis reduction (one patient, on active treatment >18 months): from grade 3 to 2
overlapping hematological toxicities (thrombocytopenia and/or anemia) (relative to toxicities reported for other MF treatments): minimal or no indication of overlapping hematological toxicities
patients achieving ≥35% SVR (number) (second interim analysis): 3 of 13
median spleen volume change (second interim analysis, 13 evaluable patients): −11%
dose limiting toxicities (second interim analysis, 23 patients, 5 dose levels): no dose limiting toxicities
median TSS reduction from baseline [8]: 70%
patients with TSS reduction [8]: 12 out of 13
patients with ≥50% TSS reduction (number) [8]: Seven of 13
patients achieving ≥35% SVR (percent) [9]: 23%
patients with ≥50% TSS reduction (percent) [9]: 54%
patients with ≥50% TSS reduction and durable response for ≥12 weeks (second interim analysis, of seven patients with ≥50% TSS reduction): 5 patients
patients with spleen volume reduction (SVR) (second interim analysis, ≥12 weeks of treatment, 13 evaluable): 10 patients
doses declared safe (second interim analysis, printed mg BTD): up to 720 mg

Reference: patent US20260306490A1, “PIM1 INHIBITOR FOR TREATING MYELOPROLIFERATIVE NEOPLASMS” (Sumitomo Pharma America, Inc., priority 2022, published 2026)
